Experimental data taken from US9376420B2 (YUHAN CORPORATION, priority 2012, dated 2016).

Target: T1, human LXRβ (Homo sapiens, UniProt P55055)
T1 construct: expressed in transfected cells; host or cells: HEK293 cells (ATCC CRL-1573), transient transfection with pFA-hLXRβ/GAL4 and pUAS
T1 sequence (P55055 222-460 limits assumed): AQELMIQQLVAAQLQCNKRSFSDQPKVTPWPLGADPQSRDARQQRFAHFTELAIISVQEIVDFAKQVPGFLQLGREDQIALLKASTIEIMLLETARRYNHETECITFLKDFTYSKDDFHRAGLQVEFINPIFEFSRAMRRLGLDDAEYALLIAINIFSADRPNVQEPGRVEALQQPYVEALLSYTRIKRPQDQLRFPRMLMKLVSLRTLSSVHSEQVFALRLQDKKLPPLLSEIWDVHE
Assay: Assay for Transcriptional Activity of LXRβ (GAL4-hLXRβ LBD luciferase reporter, transient transfection)
Type: cell-based
Settings: HEK293 cells transfected with pFA-hLXRβ/GAL4 and pUAS, 24 hours; for Emax: fold value in comparison with the control (DMSO-treated group); for EC50: increase of transcriptional activity of LXRβ, average of three independent tests
Summary of the method: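 EC50 values, averaged over three independent runs, come from a four-parameter fit of 9-point half-log curves spanning 0.01–50 μM. Luciferase output was read in lysed HEK293 cells 24 h after dosing at 37 °C, following transient transfection with a GAL4-human LXRβ LBD fusion plus GAL4-responsive reporter.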

| SMILES | Emax [fold] | EC50 [µM] |
| --- | --- | --- |
| COC(=O)c1cncc(-c2ccc(C3CC(C(O)(C(F)(F)F)C(F)(F)F)=NN3c3ccccc3Cl)cc2)c1 (stereo not shown) [Example 273, 1-(2-chloro-phenyl)-5-[4-(5-methoxycarbonyl-pyridin-3-yl)-phenyl]-3-[di-(trifluoromethyl)-hydroxy-methyl]-4,5-dihydro-1H-pyrazole] | 45 | 1.15 |
| COc1ncc(-c2ccc(C3CC(C(O)(C(F)(F)F)C(F)(F)F)=NN3c3ccccc3Cl)cc2)cc1C=O (stereo not shown) [Example 274, 1-(2-chloro-phenyl)-5-[4-(5-formyl-6-methoxy-pyridin-3-yl)-phenyl]-3-[di-(trifluoromethyl)-hydroxy-methyl]-4,5-dihydro-1H-pyrazole] | 55 | 1.01 |
| Cc1cccc(-c2ccc(C3CC(C(O)(C(F)(F)F)C(F)(F)F)=NN3c3ccccc3Cl)cc2)n1 (stereo not shown) [Example 276, 1-(2-chloro-phenyl)-5-[4-(6-methyl-pyridin-2-yl)-phenyl]-3-[di-(trifluoromethyl)-hydroxy-methyl]-4,5-dihydro-1H-pyrazole] | 87 | 1.24 |
| OC(C1=NN(c2ccccc2Cl)C(c2ccc(-c3cccnc3)cc2)C1)(C(F)(F)F)C(F)(F)F (stereo not shown) [Example 277, 1-(2-chloro-phenyl)-5-[4-(pyridin-3-yl)-phenyl]-3-[di-(trifluoromethyl)-hydroxy-methyl]-4,5-dihydro-1H-pyrazole] | 65 | 0.364 |
| N#Cc1cncc(-c2ccc(C3CC(C(O)(C(F)(F)F)C(F)(F)F)=NN3c3ccccc3Cl)cc2)c1 (stereo not shown) [Example 278, 1-(2-chloro-phenyl)-5-[4-(5-cyano-pyridin-3-yl)-phenyl]-3-[di-(trifluoromethyl)-hydroxy-methyl]-4,5-dihydro-1H-pyrazole] | 68 | 0.731 |
| COc1ncc(-c2ccc(C3CC(C(O)(C(F)(F)F)C(F)(F)F)=NN3c3ccccc3Cl)cc2)cn1 (stereo not shown) [Example 279, 1-(2-chloro-phenyl)-5-[4-(2-methoxy-pyrimidin-5-yl)-phenyl]-3-[di-(trifluoromethyl)-hydroxy-methyl]-4,5-dihydro-1H-pyrazole] | 67 | 0.931 |
| COc1ncc(-c2ccc(C3CC(C(O)(C(F)(F)F)C(F)(F)F)=NN3c3ccccc3Cl)cc2)c(OC)n1 (stereo not shown) [Example 280, 1-(2-chloro-phenyl)-5-[4-(2,4-dimethoxy-pyrimidin-5-yl)-phenyl]-3-[di-(trifluoromethyl)-hydroxy-methyl]-4,5-dihydro-1H-pyrazole] | 81 | 0.556 |
| OC(C1=NN(c2ccccc2Cl)C(c2ccc(-c3cnc(Cl)nc3)cc2)C1)(C(F)(F)F)C(F)(F)F (stereo not shown) [Example 281, 1-(2-chloro-phenyl)-5-[4-(2-chloro-pyrimidin-5-yl)-phenyl]-3-[di-(trifluoromethyl)-hydroxy-methyl]-4,5-dihydro-1H-pyrazole] | 66 | 1.79 |
| CN(CCO)S(=O)(=O)c1cccc(-c2ccc(C3CC(C(O)(C(F)(F)F)C(F)(F)F)=NN3c3ccccc3Cl)cc2)c1 (stereo not shown) [Example 283, 1-(2-chloro-phenyl)-5-{3′-[(2-hydroxy-ethyl)-methyl-sulfamoyl]-biphenyl-4-yl}-3-[di-(trifluoromethyl)-hydroxy-methyl]-4,5-dihydro-1H-pyrazole] | 51 | 0.27 |
| CN(C)S(=O)(=O)c1cccc(-c2ccc(C3CC(C(O)(C(F)(F)F)C(F)(F)F)=NN3c3ccccc3Cl)cc2)c1 (stereo not shown) [Example 284, 1-(2-chloro-phenyl)-5-(3′-dimethylsulfamoyl-biphenyl-4-yl)-3-[di-(trifluoromethyl)-hydroxy-methyl]-4,5-dihydro-1H-pyrazole] | 56 | 0.635 |
| CN(CCCS(=O)(=O)c1cccc(-c2ccc(C3CC(C(O)(C(F)(F)F)C(F)(F)F)=NN3c3ccccc3Cl)cc2)c1)C(=O)OC(C)(C)C (stereo not shown) [Example 285, 5-{3′-[3-(N-BOC-N-methyl-amino)-propane-1-sulfonyl]-biphenyl-4-yl}-1-(2-chloro-phenyl)-3-[di-(trifluoromethyl)-hydroxy-methyl]-4,5-dihydro-1H-pyrazole] | 73 | 0.062 |
| CS(=O)(=O)c1cccc(-c2ccc(C3CC(C(O)(C(F)(F)F)C(F)(F)F)=NN3c3ccccc3Cl)cc2)n1 (stereo not shown) [Example 286, 1-(2-chloro-phenyl)-5-{4-[6-(methylsulfonyl)-pyridin-2-yl]-phenyl}-3-[di-(trifluoromethyl)-hydroxy-methyl]-4,5-dihydro-1H-pyrazole] | 36 | 0.632 |
| OC(C1=NN(c2ccccc2Cl)C(c2ccc(-c3cc(F)c(-n4cncn4)cc3F)cc2)C1)(C(F)(F)F)C(F)(F)F (stereo not shown) [Example 287, 1-(2-chloro-phenyl)-5-[2′,5′-difluoro-4′-(1H-1,2,4-triazol-1-yl)-biphenyl-4-yl]-3-[di-(trifluoromethyl)-hydroxy-methyl]-4,5-dihydro-1H-pyrazole] | 47 | 0.519 |
| CS(=O)(=O)c1cc(F)c(-c2ccc(C3CC(C(O)(C(F)(F)F)C(F)(F)F)=NN3c3ccccc3Cl)cc2)c(F)c1 (stereo not shown) [Example 288, 1-(2-chloro-phenyl)-5-[2′,6′-difluoro-4′-(methylsulfonyl)-biphenyl-4-yl]-3-[di-(trifluoromethyl)-hydroxy-methyl]-4,5-dihydro-1H-pyrazole] | 40 | 0.727 |
| CS(=O)(=O)c1ccc(-c2ccc(C3CC(C(O)(C(F)(F)F)C(F)(F)F)=NN3c3ccccc3Cl)cc2)c(C(F)(F)F)c1 (stereo not shown) [Example 289, 1-(2-chloro-phenyl)-5-[4′-(methylsulfonyl)-2′-(trifluoromethyl)-biphenyl-4-yl]-3-[di-(trifluoromethyl)-hydroxy-methyl]-4,5-dihydro-1H-pyrazole] | 32 | 0.32 |
| CS(=O)(=O)c1ccc(-c2ccc(C3CC(C(O)(C(F)(F)F)C(F)(F)F)=NN3c3ccccc3Cl)cc2)cc1C#N (stereo not shown) [Example 290, 1-(2-chloro-phenyl)-5-[3′-cyano-4′-(methylsulfonyl)-biphenyl-4-yl]-3-[di-(trifluoromethyl)-hydroxy-methyl]-4,5-dihydro-1H-pyrazole] | 29 | 0.161 |
| CS(=O)(=O)N1CC=C(c2ccc(C3CC(C(O)(C(F)(F)F)C(F)(F)F)=NN3c3ccccc3Cl)cc2)CC1 (stereo not shown) [Example 298, 1-(2-chloro-phenyl)-5-[4-(1-methanesulfonyl-1,2,3,6-tetrahydropyridin-4-yl)-phenyl]-3-[di-(trifluoromethyl)-hydroxy-methyl]-4,5-dihydro-1H-pyrazole] | 88 | 0.304 |
| CCS(=O)(=O)N1CC=C(c2ccc(C3CC(C(O)(C(F)(F)F)C(F)(F)F)=NN3c3ccccc3Cl)cc2)CC1 (stereo not shown) [Example 299, 1-(2-chloro-phenyl)-5-[4-(1-ethanesulfonyl-1,2,3,6-tetrahydropyridin-4-yl)-phenyl]-3-[di-(trifluoromethyl)-hydroxy-methyl]-4,5-dihydro-1H-pyrazole] | 83 | 0.316 |
| CCCS(=O)(=O)N1CC=C(c2ccc(C3CC(C(O)(C(F)(F)F)C(F)(F)F)=NN3c3ccccc3Cl)cc2)CC1 (stereo not shown) [Example 300, 1-(2-chloro-phenyl)-5-{4-[1-(propane-1-sulfonyl)-1,2,3,6-tetrahydropyridin-4-yl]-phenyl}-3-[di-(trifluoromethyl)-hydroxy-methyl]-4,5-dihydro-1H-pyrazole] | 53 | 0.635 |
| CC(C)S(=O)(=O)N1CC=C(c2ccc(C3CC(C(O)(C(F)(F)F)C(F)(F)F)=NN3c3ccccc3Cl)cc2)CC1 (stereo not shown) [Example 301, 1-(2-chloro-phenyl)-5-{4-[1-(propane-2-sulfonyl)-1,2,3,6-tetrahydropyridin-4-yl]-phenyl}-3-[di-(trifluoromethyl)-hydroxy-methyl]-4,5-dihydro-1H-pyrazole] | 73 | 0.479 |
| CC(C)CS(=O)(=O)N1CC=C(c2ccc(C3CC(C(O)(C(F)(F)F)C(F)(F)F)=NN3c3ccccc3Cl)cc2)CC1 (stereo not shown) [Example 302, 1-(2-chloro-phenyl)-5-{4-[1-(2-methyl-propane-1-sulfonyl)-1,2,3,6-tetrahydropyridin-4-yl]-phenyl}-3-[di-(trifluoromethyl)-hydroxy-methyl]-4,5-dihydro-1H-pyrazole] | 45 | 0.849 |
| O=S(=O)(C1CC1)N1CC=C(c2ccc(C3CC(C(O)(C(F)(F)F)C(F)(F)F)=NN3c3ccccc3Cl)cc2)CC1 (stereo not shown) [Example 304, 1-(2-chloro-phenyl)-5-[4-(1-cyclopropanesulfonyl-1,2,3,6-tetrahydropyridin-4-yl)-phenyl]-3-[di-(trifluoromethyl)-hydroxy-methyl]-4,5-dihydro-1H-pyrazole] | 104 | 0.521 |
| CN(C)S(=O)(=O)N1CC=C(c2ccc(C3CC(C(O)(C(F)(F)F)C(F)(F)F)=NN3c3ccccc3Cl)cc2)CC1 (stereo not shown) [Example 305, 1-(2-chloro-phenyl)-5-{4-[1-dimethylsulfamoyl-1,2,3,6-tetrahydropyridin-4-yl]-phenyl}-3-[di-(trifluoromethyl)-hydroxy-methyl]-4,5-dihydro-1H-pyrazole] | 66 | 0.304 |
